In patent US20160355483A1, “COMPOUND BINDING TO PPARG BUT NOT ACTING AS PROMOTER AND PHARMACEUTICAL COMPOSITION FOR TREATING PPARG-RELATED DISEASES CONTAINING SAME AS ACTIVE INGREDIENT” (Hyundai Pharm Co., Ltd., priority 2014, published 2016):

Target: T1, PPARG (peroxisome proliferator activated receptor-gamma), GST-PPARG-LBD (Homo sapiens, UniProt P37231)
T1 construct: 15 μL of 5 nM GST-PPARG-LBD and 5 nM Tb-GST-antibody were added; purchased Invitrogen PV4894
T1 sequence (P37231 238-503 limits assumed): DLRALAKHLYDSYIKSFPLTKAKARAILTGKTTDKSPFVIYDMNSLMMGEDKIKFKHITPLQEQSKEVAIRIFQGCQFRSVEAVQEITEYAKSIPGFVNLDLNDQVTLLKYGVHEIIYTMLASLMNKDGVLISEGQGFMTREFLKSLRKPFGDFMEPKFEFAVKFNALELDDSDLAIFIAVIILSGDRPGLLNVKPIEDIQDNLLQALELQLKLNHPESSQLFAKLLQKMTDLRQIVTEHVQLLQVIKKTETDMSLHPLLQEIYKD
Experiment: LanthaScreen TR-FRET PPARG Competitive Binding Assay
Set-up: key: “+” indicates the degree of the binding activity, and as the number of “+” increases, the binding activity is stronger; ++: “+” indicates the degree of the binding activity, and as the number of “+” increases, the binding activity is stronger; +++: “+” indicates the degree of the binding activity, and as the number of “+” increases, the binding activity is stronger; ++++: “+” indicates the degree of the binding activity, and as the number of “+” increases, the binding activity is stronger
Conditions: degree of binding activity
Procedure, shortened: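 Ratio of 518 nm to 488 nm time-resolved emission after a 1 h room-temperature incubation, in competition format with GST-PPARG ligand-binding domain. Values are expressed as 100% minus compound-to-vehicle ratio and related to rosiglitazone binding.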

| Compound | Binding assay (1 μLM) |
| --- | --- |
| Cc1ccc([C@H](C)NC(=O)c2ccc3c(c2)CCCN3Cc2ccc(-c3ccccc3C(N)=O)cc2F)cc1F [Example 114, (S)-1-((2′-carbamoyl-3-fluoro-[1,1′-biphenyl]-4-yl)methyl)-N-(1-(3-fluoro-4-methylphenyl)ethyl)-1,2,3,4-tetrahydroquinoline-6-carboxamide] | +++ |
| C[C@H](NC(=O)c1ccc2c(c1)CCCN2Cc1cccc(-c2ccccc2C(=O)O)c1)c1ccccc1 [Example 116, (S)-3′-((6-((1-phenylethyl)carbamoyl)-3,4-dihydroquinoline-1(2H)-yl)methyl)-[1,1′-biphenyl]-2-carboxylic acid] | +++ |
| C[C@H](NC(=O)c1ccc2c(c1)CCCN2Cc1cccc(-c2ccccc2C(N)=O)c1)c1ccccc1 [Example 117, (S)-1-((2′-carbamoyl-[1,1′-biphenyl]-3-yl)methyl)-N-(1-phenylethyl)-1,2,3,4-tetrahydroquinoline-6-carboxamide] | +++ |
| C[C@H](NC(=O)c1ccc2c(c1)CCCN2Cc1cccc(-c2ccccc2C(=O)O)c1)c1ccc([N+](=O)[O-])cc1 [Example 119, (S)-3′-((6-((1-(4-nitrophenyl)ethyl)carbamoyl)-3,4-dihydroquinoline-1(2H)-yl)methyl)-[1,1′-biphenyl]-2-carboxylic acid] | ++ |
| C[C@H](NC(=O)c1ccc2c(c1)CCCN2Cc1cccc(-c2ccccc2C(=O)O)c1)c1ccc2ccccc2c1 [Example 120, (S)-3′-((6-((1-(naphthalene-2-yl)ethyl)carbamoyl)-3,4-dihydroquinoline-1(2H)-yl)methyl)-[1,1′-biphenyl]-2-carboxylic acid] | ++++ |
| Cc1ccc([C@H](C)NC(=O)c2ccc3c(c2)CCCN3Cc2cccc(-c3ccccc3C(=O)O)c2)cc1F [Example 121, (S)-3′-((6-((1-(3-fluoro-4-methylphenyl)ethyl)carbamoyl)-3,4-dihydroquinoline-1(2H)-yl)methyl)-[1,1′-biphenyl]-2-carboxylic acid] | +++ |
| C[C@H](NC(=O)c1ccc2c(c1)CCCN2Cc1cccc(-c2ccccc2C(N)=O)c1)c1ccc(C#N)cc1 [Example 122, (S)-1-((2′-carbamoyl-[1,1′-biphenyl]-3-yl)methyl)-N-(1-(4-cyanophenyl)ethyl)-1,2,3,4-tetrahydroquinoline-6-carboxamide] | ++ |
| C[C@H](NC(=O)c1ccc2c(c1)CCCN2Cc1cccc(-c2ccccc2C(N)=O)c1)c1ccc2ccccc2c1 [Example 124, (S)-1-((2′-carbamoyl-[1,1′-biphenyl]-3-yl)methyl)-N-(1-(naphthalene-2-yl)ethyl)-1,2,3,4-tetrahydroquinoline-6-carboxamide] | ++++ |
| Cc1ccc([C@H](C)NC(=O)c2ccc3c(c2)CCCN3Cc2cccc(-c3ccccc3C(N)=O)c2)cc1F [Example 125, (S)-1-((2′-carbamoyl-[1,1′-biphenyl]-3-yl)methyl)-N-(1-(3-fluoro-4-methylphenyl)ethyl)-1,2,3,4-tetrahydroquinoline-6-carboxamide] | +++ |
| C[C@H](NC(=O)c1ccc2c(c1)CCCN2Cc1cccc(-c2ccccc2C(=O)O)c1F)c1ccccc1 [Example 126, (S)-2′-fluoro-3′-((6-((1-phenylethyl)carbamoyl)-3,4-dihydroquinoline-1(2H)-yl)methyl)-[1,1′-biphenyl]-2-carboxylic acid] | +++ |
| C[C@H](NC(=O)c1ccc2c(c1)CCCN2Cc1cccc(-c2ccccc2C(N)=O)c1F)c1ccccc1 [Example 127, (S)-1-((2′-carbamoyl-2-fluoro-[1,1′-biphenyl]-3-yl)methyl)-N-(1-phenylethyl)-1,2,3,4-tetrahydroquinoline-6-carboxamide] | +++ |
| C[C@H](NC(=O)c1ccc2c(c1)CCCN2Cc1cccc(-c2ccccc2C(=O)O)c1F)c1ccc([N+](=O)[O-])cc1 [Example 128, (S)-2′-fluoro-3′-((6-((1-(4-nitrophenyl)ethyl)carbamoyl)-3,4-dihydroquinoline-1(2H)-yl)methyl)-[1,1′-biphenyl]-2-caboxylic acid] | ++ |
| C[C@H](NC(=O)c1ccc2c(c1)CCCN2Cc1cccc(-c2ccccc2C(=O)O)c1F)c1ccc2ccccc2c1 [Example 129, (S)-2′-fluoro-3′-((6-((1-(naphthalene-2-yl)ethyl)carbamoyl)-3,4-dihydroquinoline-1(28)-yl)methyl)-[1,1′-biphenyl]-2-carboxylic acid] | ++++ |
| Cc1ccc([C@H](C)NC(=O)c2ccc3c(c2)CCCN3Cc2cccc(-c3ccccc3C(=O)O)c2F)cc1F [Example 130, (S)-2′-fluoro-3′-((6-((1-(3-fluoro-4-methylphenyl)ethyl)carbamoyl)-3,4-dihydroquinoline-1(2H)-yl)methyl)-[1,1′-biphenyl]-2-caboxylic acid] | +++ |
| C[C@H](NC(=O)c1ccc2c(c1)CCCN2Cc1cccc(-c2ccccc2C(N)=O)c1F)c1ccc2ccccc2c1 [Example 132, (S)-1-((2′-carbamoyl-2-fluoro-[1,1′-biphenyl]-3-yl)methyl)-N-(1-(naphthalene-2-yl)ethyl)-1,2,3,4-tetrahydroquinoline-6-carboxamide] | ++++ |
| Cc1ccc([C@H](C)NC(=O)c2ccc3c(c2)CCCN3Cc2cccc(-c3ccccc3C(N)=O)c2F)cc1F [Example 133, (S)-1-((2′-carbamoyl-2-fluoro-[1,1′-biphenyl]-3-yl)methyl)-N-(1-(3-fluoro-4-methylphenyl)ethyl)-1,2,3,4-tetrahydroquinoline-6-carboxamide] | +++ |
| C[C@H](NC(=O)c1ccc2c(c1)CCCN2Cc1cc(-c2ccccc2C(=O)O)ccc1F)c1ccccc1 [Example 134, (S)-4′-fluoro-3′-((6-((1-phenylethyl)carbamoyl)-3,4-dihydroquinoline-1(2H)-yl)methyl)-[1,1′-biphenyl]-2-carboxylic acid] | ++++ |
| C[C@H](NC(=O)c1ccc2c(c1)CCCN2Cc1cc(-c2ccccc2C(N)=O)ccc1F)c1ccccc1 [Example 135, (S)-1-((2′-carbamoyl-4-fluoro-[1,1′-biphenyl]-3-yl)methyl)-N-(1-phenylethyl)-1,2,3,4-tetrahydroquinoline-6-carboxamide] | +++ |
| C[C@H](NC(=O)c1ccc2c(c1)CCCN2Cc1cc(-c2ccccc2C(=O)O)ccc1F)c1ccc([N+](=O)[O-])cc1 [Example 136, (S)-4′-fluoro-3′-((6-((1-(4-nitrophenyl)ethyl)carbamoyl)-3,4-dihydroquinoline-1(2H)-yl)methyl)-[1,1′-biphenyl]-2-caboxylic acid] | +++ |
| C[C@H](NC(=O)c1ccc2c(c1)CCCN2Cc1cc(-c2ccccc2C(=O)O)ccc1F)c1ccc2ccccc2c1 [Example 137, (S)-4′-fluoro-3′-((6-((1-(naphthalene-2-yl)ethyl)carbamoyl)-3,4-dihydroquinoline-1(2)-yl)methyl)-[1,1′-biphenyl]-2-carboxylic acid] | ++++ |
